The values that follow come from article PMC7274539, “The selective glucocorticoid receptor antagonist CORT125281 has tissue-specific activity” (The Journal of Endocrinology, 2020).

One series relates to other nuclear receptors. Details: method as in Kroon et al. 2018. As to conditions: ref Kroon et al. 2018; cited from earlier work.
In series [1] the test system is GR. More on the design: method as in Lahteenmaki et al. 1987, Kroon et al. 2018. The settings on record: half maximal inhibitory concentration of the GR antagonist; ref Lahteenmaki et al. 1987, Kroon et al. 2018; cited from earlier work.
In series [2] the target is T1, human GR ligand-binding domain (Homo sapiens, UniProt P04150).
T1 construct: purchased Invitrogen PV4689
T1 sequence (P04150 524-758 limits assumed): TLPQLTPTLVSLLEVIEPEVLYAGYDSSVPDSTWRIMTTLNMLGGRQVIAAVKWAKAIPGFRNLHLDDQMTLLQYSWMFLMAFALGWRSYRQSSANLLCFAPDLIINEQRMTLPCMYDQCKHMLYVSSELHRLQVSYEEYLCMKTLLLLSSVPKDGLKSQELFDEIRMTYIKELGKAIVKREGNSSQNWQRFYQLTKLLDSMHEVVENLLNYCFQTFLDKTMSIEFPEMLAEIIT
The series can be described thus: MARCoNI peptide interaction profiling (coregulator-nuclear receptor interaction). It counts as biochemical. As to conditions: CORT125281 1 µM. The method, then:
As the assay utilizes human GR, experiments were performed with cortisol rather than corticosterone. […] Incubation was performed at 20°C in a PamStation96 (PamGene International, Den Bosch, Netherlands) for 40 min. Receptor binding to each peptide on the array, reflected by a fluorescent signal, was quantified by analysis of .tiff images using BioNavigator software (PamGene International).

The test system of a further series is GR activity in the brain. As to the kind of experiment: In situ hybridization of Gilz mRNA, Fkbp5 hnRNA, Nr3c1 and Nr3c2 in hippocampus and PVN. The format is in vivo, C57Bl/6J mice. Here is the method: (§1) All studies involving animals were approved by the institutional ethics committee on animal care and experimentation at the Leiden University Medical Center. The 8-week old male C57Bl/6J mice (Charles River) were housed in ventilated cages with a 12 h light:12 h darkness regime and ad libitum access to food and water. In the acute corticosterone exposure experiments, mice received a synthetic chow diet (Research Diets, New Brunswick, NJ, USA) containing vehicle or CORT125281 (6, 20 or 60 mg/kg/day, Corcept Therapeutics, Menlo Park, CA, USA) for 6 days. […] Mice were treated daily with vehicle, 60 mg/kg mifepristone (Corcept Therapeutics) or 60 mg/kg CORT125281 (dissolved in PBS with 0.1% Tween 80 and 0.5% hydroxypropylmethylcellullose, Corcept Therapeutics) via oral gavage for 5 days, after which mice were killed by CO2 inhalation. Throughout the experiment, body weight was monitored and body composition was determined with EchoMRI™ (Frankfurt, Germany). After 5 days, blood was collected from the lateral tail vain in paraoxon-coated capillaries after a 6-h fast. Plasma triglyceride, total cholesterol, free fatty acid, glucose and insulin levels were determined using commercially available kits (Roche; Instruchemie, Delfzijl, Netherlands and Crystal Chem, Zaandam, Netherlands). Blood concentrations of the major leukocyte classes, that is, lymphocytes, monocytes and eosinophils, were determined in whole blood using an automatic veterinary hematology analysis (Sysmex XT-2000iV; Goffin Meyvis, Etten-Leur, the Netherlands).
(§2) For dual label in situ hybridization, frozen unfixed pituitaries were embedded in tissue-tek OCT (Sakura Finetek, Alphen aan den Rijn, Netherlands), sliced (12 µm) and collected on glass slides (Superfrost Plus, Thermo Fisher Scientific). Dual label in situ hybridization was performed using the QuantiGene ViewRNA ISH Tissue 2-Plex Assay (Thermo Fisher Scientific) and pictures were captured with a wide-field microscope (DM6B, Leica Microsystems). For 4-plex in situ hybridization, frozen, unfixed brain slices (12 µm) were collected on glass slides at bregma −0.772 mm (PVN) and −1.532 mm (hippocampus). 4-plex in situ hybridization was performed using the RNAScope fluorescent multiplex assay and RNAscope 4-plex ancillary kit (Advanced Cell Diagnostics, Newark, CA, USA) and Opal fluorophores 520, 570, 620 and 690 (PerkinElmer). Pictures were captured with a confocal microscope (SP8 WLL, Leica Microsystems). All pictures were analysed with ImageJ Software (NIH).

The test system of another series is HPA-axis activity. More on the design: method as in Kroon et al. 2018. The settings on record: ref Kroon et al. 2018; cited from earlier work.
The subject of series [3] is GR. The settings on record: ref Kroon et al. 2018; cited from earlier work.
The test system of series [4] is hypothalamus-pituitary-adrenal (HPA)-axis activity. As to the kind of experiment: Basal and novelty stress-induced HPA-axis activity (ACTH, corticosterone, pituitary Pomc, adrenal weight). The format is in vivo, C57Bl/6J mice. Here is the method: as §1
In both acute and subchronic corticosterone experiments, relevant tissues (including quadriceps muscle, interscapular BAT, gonadal white adipose tissue (WAT), adrenals, spleen, thymus, pituitary and hippocampus) were collected to determine tissue weight and/or for further molecular analysis.
Novelty stress tests were performed in the morning (between 08:00–12:00 h) after 2 days of exposure to CORT125281. At t = 0, a blood sample was collected, after which mice were placed in a novel cage without bedding. After 10 min, a second blood sample was collected and mice were placed back in their original home cage.
as §2

Setting [5] is: 20 mg/kg/day CORT125281 6 days, corticosterone injection 1 h.

As a reminder, the IC50 is the midpoint of a concentration-inhibition curve. Turning to `Cn1ncc(S(=O)(=O)N2CC[C@H]3Cc4c(cnn4-c4ccc(F)cc4)C[C@]3(C(=O)c3cc(C(F)(F)F)ccn3)C2)n1` [CORT125281], the “cross-reactivity with other nuclear receptors” value with other nuclear receptors is on record as “lacks cross-reactivity”. Moreover, the IC50 in the series on GR [1] was 427 nM. In series [2], the “hierarchal clustering of ligand-induced GR-coregulator response profile” value is reported as “clustered with that of mifepristone” and the “number of coregulator motifs recruited compared to mifepristone” value was “tended to recruit fewer motifs”. In series [2] (mifepristone 0.1 µM), the “binding of corepressor motifs of NCOR1 and NCOR2 (SMRT) by ligand-GR complex” value is “only very modestly”. Moreover, in the series on GR activity in the brain (setting [5]), the “Nr3c1 (Gr) mRNA levels in the hippocampus” value is given as “Neither corticosterone nor CORT125281 affected” and the “Nr3c1 or Nr3c2 expression in the PVN” value was “Neither corticosterone nor CORT125281 affected”. Moreover, in the series with GR activity in the brain (6-20 mg/kg/day), the “basal mineralocorticoid receptor (MR; Nr3c2) mRNA expression in the hippocampus” value is “increased”; the “corticosterone-induced Fkbp5 hnRNA and Gilz mRNA levels in the PVN” value is “had little effect”. The “corticosterone induction of Gilz mRNA and Fkbp5 hnRNA in hippocampal subfields” value in the series with GR activity in the brain (6-20 mg/kg/day, corticosterone 1 h before tissue collection) was “did not prevent this induction”. In addition, the “basal levels of Fkbp5 hnRNA in CA2 and CA3 regions” value with GR activity in the brain (6-20 mg/kg/day, hippocampus) is given as “upregulated”. Moreover, in the series with HPA-axis activity, the “diurnal corticosterone rhythm flattened by high-fat diet” value is reported as “restored”. Moreover, the “partial agonism at GR in reporter assays” value in the series with GR [3] was “very low partial agonism”. Moreover, in series [4] (60 mg/kg/day), the adrenal weights entry is on record as “did not alter”; the “peak and trough corticosterone levels” value is given as “did not alter”; the “peak novelty stress-induced corticosterone levels” value was “slightly attenuated”. The “slope of corticosterone during the recovery phase (t = 30 to 120 min)” value in series [4] (60 mg/kg/day, novelty stress) was “unaltered”. Moreover, in series [4] (6-20 mg/kg/day), the “GR (Nr3c1) mRNA expression in the anterior pituitary” value is “increased”, the “expression of pro-opiomelanocortin (Pomc) in the anterior pituitary” value is reported as “unaltered” and the weight of adrenals result was “unaltered”. Besides, in series [4] (6-20 mg/kg/day, 08:00 h and 18:00 h), the “basal peak or trough corticosterone levels” value was “did not alter”. Moreover, the “corticosterone levels after novelty stress” value in series [4] (6 and 20 mg/kg/day vs vehicle, all measured time points, day 2) is reported as “similar”. In addition, the “circulating levels of ACTH” value in series [4] (6 and 20 mg/kg/day, 18:00 on day 4) is recorded as “unchanged”.
